Test results: patent US11413261B2, “Pharmaceutical composition for treating cancer comprising lactate metal salt” (METIMEDI PHARMACEUTICALS CO., LTD, priority 2014, dated 2022)

Assays:
[1] = tested on: human colorectal cancer cell line HCT-116; conditions: 5 mM CA individually, 10 days
[2] = tested on: human lung cancer cell line (A549); assay: Colony-forming ability, anticancer drug in combination with calcium lactate (6-well plates); type: cell-based; conditions: vs control
Method: Human breast cancer cell line (MCF-7) and a human lung cancer cell line (A549) with the cell number of 1×10^3 cells were seeded into an RPMI1640 medium in each of 6-well plates. […]. Then, the colony-forming abilities of the cells were compared. In this case, a human breast cancer cell line (MCF-7) and a human lung cancer cell line (A549) untreated with any drug were used as control groups (FIGS. 42a, 42b, 43a and 43b).
(§1) Human lung cancer cell line (A549) with the cell number of 1×10^3 cells were seeded into an RPMI1640 medium in each of 6-well plates. […]. Then, the colony-forming abilities of the cells were compared. In this case, a human lung cancer cell line (A549) untreated with any drug was used as a control group (FIGS. 44a and 44b).
as §1, with “47a” for “44a”, “47b).” for “44b).”
as §1, with “49a” for “44a”, “49b).” for “44b).”
as §1, with “50a” for “44a”, “50b).” for “44b).”
as §1, with “51a” for “44a”, “51b).” for “44b).”

[3] = tested on: human kidney cancer cell line (Caki-1); assay: as above; type: cell-based; conditions: 0.3, 0.5, 1 nM Everolimus alone, vs control
Method: Human kidney cancer cell line (Caki-1) with the cell number of 1×10^3 cells were seeded into an RPMI1640 medium in each of 6-well plates. After one day, the medium was replaced with fresh medium and the cells were treated with 0.3 nM, 0.5 nM, and 1 nM Everolimus alone or treated with various concentrations (0.3 nM, 0.5 nM, and 1 nM) of Everolimus in combination with 2.5 mM calcium lactate. Then, the colony-forming abilities of the cells were compared. In this case, a human kidney cancer cell line (Caki-1) untreated with any drug was used as a control group (FIGS. 53a and 53b).

[4] = tested on: human breast cancer cell line (MCF-7); assay: as above; type: cell-based; conditions: vs control
Method: Human breast cancer cell line (MCF-7) and a human lung cancer cell line (A549) with the cell number of 1×10^3 cells were seeded into an RPMI1640 medium in each of 6-well plates. […] Then, the colony-forming abilities of the cells were compared. In this case, a human breast cancer cell line (MCF-7) and a human lung cancer cell line (A549) untreated with any drug were used as control groups (FIGS. 42a, 42b, 43a and 43b).
Human breast cancer cell line (MCF-7) with the cell number of 1×10^3 cells were seeded into an RPMI1640 medium in each of 6-well plates. After one day, the medium was replaced with fresh medium and the cells were treated with 2.5 mM calcium lactate or 2 μM, 4 μM, and 8 μM Lapatinib alone or treated with various concentrations (2 μM, 4 μM, and 8 μM) of Lapatinib in combination with 2.5 mM calcium lactate. Then, the colony-forming abilities of the cells were compared. In this case, a human breast cancer cell line (MCF-7) untreated with any drug was used as a control group (FIGS. 52a and 52b).

cancer cell = assay: Dissociation of metal lactate salts to lactate in a cancer cell; type: cell-based
[5] = tested on: human colorectal cancer cell line (HT-29); assay: Colony-forming ability, anticancer drug in combination with calcium lactate (6-well plates); type: cell-based; conditions: vs control
Method: as §1, with “colorectal” for “lung”, “(HT-29)” for “(A549)”, “46a” for “44a”, “46b).” for “44b).”
as §1, with “colorectal” for “lung”, “(HT-29)” for “(A549)”, “48a” for “44a”, “48b).” for “44b).”
as §1, with “colorectal” for “lung”, “(HT-29)” for “(A549)”, “(FIG. 55).” for “(FIGS. 44a and 44b).”

[6] = tested on: human colorectal cancer cell lines (HT-29 and HCT-116); assay: as above; type: cell-based; conditions: vs control
Method: Human colorectal cancer cell lines (HT-29 and HCT-116) with the cell number of 1×10^3 cells were seeded into an RPMI1640 medium in each of 6-well plates. After one day, the medium was replaced with fresh medium and the cells were treated with 2.5 mM calcium lactate or 1 μM, 2.5 μM, and 5 μM Imatinib alone or treated with various concentrations (1 μM, 2.5 μM, and 5 μM) of Imatinib in combination with 2.5 mM calcium lactate. Then, the colony-forming abilities of the cells were compared. In this case, human colorectal cancer cell lines (HT-29 and HCT-116) untreated with any drug were used as control groups (FIGS. 38a, 38b, 39a and 39b).
Human colorectal cancer cell lines (HT-29 and HCT-116) with the cell number of 1×10^3 cells were seeded into an RPMI1640 medium in each of 6-well plates. After one day, the medium was replaced with fresh medium and the cells were treated with 2.5 mM calcium lactate or 2.5 μM, 5 μM, and 10 μM 5-FU alone or treated with various concentrations (2.5 μM, 5 μM, and 10 μM) of 5-FU in combination with 2.5 mM calcium lactate. Then, the colony-forming abilities of the cells were compared. In this case, human colorectal cancer cell lines (HT-29 and HCT-116) untreated with any drug were used as control groups (FIGS. 40a, 40 b, 41a and 41b).

[7] = tested on: human liver cancer cell line (Hep3B); assay: as above; type: cell-based; conditions: 1, 2.5, 5 μM Sorafenib alone, vs control
Method: Human liver cancer cell line (Hep3B) with the cell number of 1×10^3 cells were seeded into an RPMI1640 medium in each of 6-well plates. After one day, the medium was replaced with fresh medium and the cells were treated with 2.5 mM calcium lactate or 1 μM, 2.5 μM, and 5 μM Sorafenib alone or treated with various concentrations (1 μM, 2.5 μM, and 5 μM) of Sorafenib in combination with 2.5 mM calcium lactate. Then, the colony-forming abilities of the cells were compared. In this case, a human liver cancer cell line (Hep3B) untreated with any drug was used as a control group (FIGS. 45a and 45b).

[8] = tested on: human vascular endothelial cell (HUVEC); assay: Tube formation of HUVEC in culture supernatants of treated cancer cell lines; type: cell-based; conditions: HUVEC treated with Sulforaphane (comparison group)
Excerpt: A human vascular endothelial cell (HUVEC) was inoculated into each of the obtained culture supernatant and cultured to analyze a conformational change of cells (FIG. 17). In this case, an HUVEC cultured using the culture medium of a cancer cell line cultured without treating with calcium lactate was used as a control group, and an HUVEC cultured with the treatment with Sulforaphane, which is a growth inhibitor of an HUVEC, was used as a comparison group.

[9] = 0.63, 1.3, 2.5 nM Paclitaxel alone

O=C(O)C=Cc1ccccc1 [CA, cinnamic acid, reference compound] was tested, and the survival rate [1] was “about 60%”.

CN(Cc1cnc2nc(N)nc(N)c2n1)c1ccc(C(=O)N[C@@H](CCC(=O)O)C(=O)O)cc1 [Methotrexate] was tested, and the colony-forming ability ([2]; 5, 10, 20 nM Methotrexate alone) was “suppressed”.

With CO[C@H]1C[C@@H]2CC[C@@H](C)[C@@](O)(O2)C(=O)C(=O)N2CCCC[C@H]2C(=O)O[C@H]([C@H](C)C[C@@H]2CC[C@@H](OCCO)[C@H](OC)C2)CC(=O)[C@H](C)/C=C(\C)[C@@H](O)[C@@H](OC)C(=O)[C@H](C)C[C@H](C)/C=C/C=C/C=C/1C [Everolimus, reference compound] the colony-forming ability [3] was “suppressed”.

In the case of CS(=O)(=O)CCNCc1ccc(-c2ccc3ncnc(Nc4ccc(OCc5cccc(F)c5)c(Cl)c4)c3c2)o1 [Lapatinib], the colony-forming ability ([4]; 2, 4, 8 μM Lapatinib alone) is reported as “suppressed”.

In the case of CC(O)C(=O)[O-].[Na+] (stereo not drawn) [sodium lactate], the “dissociation to lactate in a cancer cell” value (cancer cell) is reported as “can be dissociated to lactate”.

With O=C1[O][Pt]2([NH][C@@H]3CCCC[C@H]3[NH]2)[O]C1=O [Oxaliplatin] the colony-forming ability ([5]; 1.3, 2.5, 5 μM Oxaliplatin alone) was “suppressed”.

For COc1cc2ncnc(Nc3ccc(F)c(Cl)c3)c2cc1OCCCN1CCOCC1 [Gefitinib], the colony-forming ability ([2]; 1.3, 2.5, 5 μM Gefitinib alone) was “suppressed”.

Cc1ccc(NC(=O)c2ccc(CN3CCN(C)CC3)cc2)cc1Nc1nccc(-c2cccnc2)n1 [Imatinib] was tested, and the colony-forming ability ([6]; 1, 2.5, 5 μM Imatinib alone) was “suppressed”.

CC(=O)O[C@@]12CO[C@@H]1C[C@H](O)[C@@]1(C)C(=O)[C@H](O)C3=C(C)[C@@H](OC(=O)[C@H](O)[C@@H](NC(=O)OC(C)(C)C)c4ccccc4)C[C@@](O)([C@@H](OC(=O)c4ccccc4)[C@H]21)C3(C)C [Docetaxel] was tested, and the colony-forming ability ([2]; 0.6, 1.3, 2.5 nM Docetaxel alone) was “suppressed”.

With CC(=O)O[C@H]1C(=O)[C@@]2(C)[C@H]([C@H](OC(=O)c3ccccc3)[C@]3(O)C[C@H](OC(=O)[C@H](O)[C@@H](NC(=O)c4ccccc4)c4ccccc4)C(C)=C1C3(C)C)[C@]1(OC(C)=O)CO[C@@H]1C[C@@H]2O [Paclitaxel] the colony-forming ability [4, 9] was “suppressed” and the colony-forming ability [2, 9] was “suppressed”.

For CNC(=O)c1cc(Oc2ccc(NC(=O)Nc3ccc(Cl)c(C(F)(F)F)c3)cc2)ccn1 [Sorafenib, reference compound], the colony-forming ability [7] was “suppressed”.

C#Cc1cccc(Nc2ncnc3cc(OCCOC)c(OCCOC)cc23)c1 [Erlotinib] was tested, and the colony-forming ability ([2]; 0.5, 1, 2 μM Erlotinib alone) was “suppressed”.

CCc1c2c(nc3ccc(OC(=O)N4CCC(N5CCCCC5)CC4)cc13)-c1cc3c(c(=O)n1C2)COC(=O)[C@]3(O)CC [Irinotecan] was tested, and the colony-forming ability ([5]; 0.5, 1, 2 μM Irinotecan alone) was “suppressed”.

With CC(O)C(=O)[O-].[K+] (stereo not drawn) [potassium lactate] the “dissociation to lactate in a cancer cell” value (cancer cell) was “can be dissociated to lactate”.

In the case of N.N.O=C([O-])C1(C(=O)[O-])CCC1.[Pt+2] [Carboplatin], the colony-forming ability ([2]; 2.5, 5, 10 μM Carboplatin alone) is reported as “suppressed”.

O=c1[nH]cc(F)c(=O)[nH]1 [5-FU] was tested, and the colony-forming ability ([6]; 2.5, 5, 10 μM 5-FU alone) was “suppressed”.

C[S+]([O-])CCCCN=C=S (stereo not drawn) [Sulforaphane, reference compound] was tested, and the “tube-forming ability of HUVEC” value [8] was “reduced tube-forming ability”.
